The values below come from a melting point compilation (Tetko et al.; mined from patent text by program, amines drawn as free bases though some values may be those of a salt).

On to `CSCC(=O)[C@H](COCc1ccccc1)NC(=O)[C@H](CC(C)C)NC(=O)OCc1ccccc1`, for which the melting point (commonly the temperature of the solid-liquid transition) lay in the range of 58 to 70 °C. Under `CC1(C)CN=C(NN=C(C=Cc2ccc(OC(F)(F)F)cc2)C=Cc2ccc(OC(F)(F)F)cc2)NC1` stands 170 to 172 °C. Under `COc1cc2c(Nc3cccc(Br)c3)c(C#N)cnc2c(OC)c1OC` stands 211 to 213 °C; under `Cc1ccc2c3c(ccc2n1)OC[C@H](CN1CCC(Oc2ccc4c(c2)NC(=O)CO4)CC1)O3`, 149 to 150 °C.

In the case of `CC(C)(CCO)c1ccc2ncc(C(=O)NCc3ccc(Cl)cc3)c(O)c2c1`, the melting point lay in the range of 184 to 192 °C. With `Nc1nc(Cl)nc(Cl)c1[N+](=O)[O-]`, the melting point lay in the range of 161 to 162 °C.

In the case of `CC(C)(C)CC(C)(C)NC(=O)c1cc(C(C)(C)C)c(OC(=O)c2cc(C(C)(C)C)c(O)c(C(C)(C)C)c2)c(C(C)(C)C)c1`, the melting point fell in the range of 213 to 215 °C. For `Cn1cncc1COCC(O)c1ccccc1` (stereo unspecified), the melting point was in the range of 102 to 105 °C.

`O=S(=O)(O)c1ccc(Oc2ccc(-n3ccnc3)cc2)cc1`: the melting point is 80 °C. For the compound `CCCCc1nnc(S(=O)Cc2ccc(OC)cc2)n1Cc1ccc(OC(C(=O)O)c2ccccc2)cc1` (stereo unspecified), the melting point lay within 74 to 75 °C.

In the case of `CC(=O)N(C(C)=O)c1c(I)c(C(=O)Cl)c(I)c(N(C(C)=O)C(C)=O)c1I`, the melting point is 231 to 232 °C. Compound `COc1ccc2cc(-c3nn(C)c4cc(OC)ccc34)ccc2c1` had a melting point of 166 to 168 °C. Then `O=S(=O)(c1ccccc1)N1CCN(CC(O)CCl)CC1` (stereo unspecified), with 136 to 137 °C; and `Cn1ccnc1CC(O)C(F)(F)F` (stereo unspecified), with 146 to 148 °C.

For the compound `CN(CCO)c1nc2ccccc2o1`, the melting point is 62 to 63 °C.

`N#Cc1sc2ccc(Br)cc2c1-c1ccccc1` returned a melting point of 145 to 146 °C. The compound `COc1cc2c(c3c1OC(C)(C)C3)C(c1ccc(NC(=O)c3cccnc3)cc1)=NC(C)(C)C2` showed a melting point of 130 to 137 °C. `COC(=O)c1ccc(Cc2cccc3ccc(C(=O)O)cc23)c(OC)c1` had a melting point of 229 to 230 °C.

`COc1ccc(Cc2ccc3nc(N)nc(N)c3c2)cc1OC` registered a melting point of 215 to 217 °C. The compound `O=C1CCCc2c(-c3ccncc3)[nH]c(-c3ccccc3)c21` registered a melting point of 259 to 260 °C. Under `O=Cc1ccc2sc(=O)[nH]c2c1` stands 140 to 142 °C. For the compound `CC1Oc2ccc(Cn3ccnc3)cc2NC1N` (stereo unspecified), the melting point is 152 to 156 °C. Consider `CCCOc1c(OC)cc([N+](=O)[O-])c2ncccc12`, for which the melting point was in the range of 100 to 104 °C. Under `COC(=O)C(O)c1cc(F)cc(F)c1` (stereo unspecified) stands 61.8 °C. The compound `N#Cn1c(-c2ccc(Cl)cc2)c([N+](=O)[O-])c(-c2ccc(Cl)c(Cl)c2)c1C(F)(F)F` displayed a melting point of 98 to 100 °C. `O=C(Nc1cn(C2CCCCO2)nc1C(=O)NCCO)c1ccccn1` (stereo unspecified) had a melting point of 214 to 215 °C.

For `COc1cc2c(cc1C)OC1(CC2(C)C)CC(C)(C)c2cc(OCC(=O)O)c(C)cc2O1` (stereo unspecified), the melting point was in the range of 195 to 197 °C. Under `COC(=O)[C@H](Cc1ccc(OS(=O)(=O)C(F)(F)F)c(C2SCCS2)c1)NC(C)=O` stands 116 to 118 °C. With `COc1ccc(C(F)(F)F)cc1Nc1cccn2nc(Nc3cccc(N4CCN(C)CC4)c3)nc12`, the melting point lay within 198 to 200 °C. `CCOCn1c(-c2ccc(Cl)cc2)c(C#N)c(Sc2ccc(Cl)c(Cl)c2)c1C(F)(F)F`: the melting point lay within 75 to 77 °C. `CCOC(=O)c1cnc2c(N)c(Cl)c(F)cc2c1O` showed a melting point of 268 to 270 °C.

As to `OCCN1C2C=C(c3ccc4ccccc4c3)CC1CC2` (stereo unspecified), the melting point was in the range of 113 to 114 °C.

Compound `O=C(O)CS(=O)(=O)c1cccc(C(=O)C2CCC3(CCNCC3)CC2)c1` had a melting point of 134 to 138 °C. `COc1cccc(C=CC(=O)C2C(=O)OC(=O)C(C(C)=O)=C2O)c1OC` (stereo unspecified) registered a melting point of 175 to 176 °C. With `OC(CCN1CCN(c2ccccc2)CC1)COc1cccc(C(F)(F)F)c1` (stereo unspecified), the melting point lay in the range of 73 to 74 °C. In turn, `Cc1ccc(S(=O)(=O)N(C)c2cc(C(C)(C)C)c(O)c(C(C)(C)C)c2)cc1` had a melting point of 130 to 142 °C. In turn, `O=C(O)CCc1oc(Sc2nccn2-c2ccccc2)nc1-c1ccc(Cl)cc1` had a melting point of 185 to 187 °C. Take `O=C(O)CN1CCNCC1`: the melting point is 130 to 132 °C. In turn, `Cc1ccc(OCc2ccccc2)c2[nH]c(CCc3ccccc3)nc12` came in with a melting point of 203 to 204 °C. With `CCOC(=O)c1ccc(NCc2ccc(Cl)s2)cc1`, the melting point was 108 to 109 °C. Turning to `CC(CO)Nc1c([N+](=O)[O-])cnc2ccccc12` (stereo unspecified), the melting point was 207 to 211 °C. As to `Cn1c(=O)n(OCc2ccccc2)c(=O)c2cc(F)c(F)cc21`, the melting point was 167 to 169 °C.

In turn, `CCCCN(CCCC)c1ccc(C=CC2=C(C#N)C(=C(C#N)C#N)OC2(C)C(F)(F)F)c(OC)c1` (stereo unspecified) yielded a melting point of 211 to 213 °C. Under `COC(=O)CS(=O)(=O)N1CC=C(c2ccc(-c3ccccc3)cc2)CC1` stands 182 to 183 °C. Under `O=C(NCc1ccc(F)c(F)c1)c1ccnc(N2CCN(CC3CC3)C2=O)c1` stands 134 to 136 °C; under `Cc1cc(C2=NOC(c3cc(Cl)cc(Cl)c3)(C(F)(F)F)C2)ccc1C(=O)Nc1ncc(C#N)cn1` (stereo unspecified), 118 to 121 °C. On to `CN1N=C(c2ccc(F)cc2)c2ccc(C(F)(F)F)cc2CS1(=O)=O`, for which the melting point was 160 to 162 °C. In turn, `O=C1Cc2ccccc2N1CCCl` displayed a melting point of 74 °C. Then `CC(C)Nc1c(-c2c(F)cc(F)cc2F)c(Cl)nc2ncccc12`, with 193 °C; and `O=C(O)COc1cccc2c1CCc1sc(SCCCC(c3ccccc3)c3ccccc3)nc1-2`, with 136 to 138 °C; and `CC(C)CNc1cc2nnnn2c2cnccc12`, with 220 to 221 °C. `COc1cccc(CNC(=O)c2[nH]c3ccc(Cl)cc3c2S(=O)(=O)c2ccccc2)c1` showed a melting point of 203 to 204 °C. `CC(=S)NC[C@H]1CN(c2ccc(N3CCC(C#N)(C(C#N)C#N)CC3)c(F)c2)C(=O)O1` yielded a melting point of 178 to 180 °C. The compound `O=C(Cc1cccc(Cl)c1)c1ccn(S(=O)(=O)c2ccccc2)c1` returned a melting point of 106 to 108 °C. Under `COc1ccc2c(c1)CCC1(CCCCN1C(=O)C(F)(F)F)C2` (stereo unspecified) stands 75 to 76 °C. `COC(=O)N1CCN(c2ccn3nc(-c4ccccc4)c(-c4ccc(=O)n(C(C)C)n4)c3c2)CC1` had a melting point of 206 to 207 °C.

`CS(=O)(=O)c1ccc(C2CC(=O)C(C(=O)c3ccc(Cl)cc3[N+](=O)[O-])C(=O)N2)cc1` (stereo unspecified): the melting point fell in the range of 296 to 299 °C. `CC#CC(C)(C)NC(=O)C(CC)Oc1ccc2ccncc2c1` (stereo unspecified) yielded a melting point of 149 to 150 °C. On to `COc1cc(/C=C/c2cc(/C=C/c3c[nH]c4ccccc34)n[nH]2)ccc1OCc1ccccn1`, for which the melting point lay in the range of 120 to 130 °C. `NC(N)=NC(=O)Cc1c(-c2ccccc2)csc1-c1ccc(Oc2ccccc2)cc1`: the melting point was 116 to 118 °C. Compound `CCOC(=O)c1cnc2c(OC)cccc2c1Nc1cscc1OC` returned a melting point of 176 to 178 °C. In turn, `CC(C)(C)OC(=O)CC(=O)c1cc2ccccc2cc1O` gave a melting point of 80 to 84 °C. In turn, `O=C(c1ccc(-c2ccccc2)nc1)N1Cc2cccn2Cc2ccccc21` registered a melting point of 171 to 174 °C.

In turn, `CCCCNC(=O)N(C)c1cccc(-c2ccc(C=C(OC)C(=O)O)cc2)c1` returned a melting point of 146 °C. `CN1C(=O)CCCc2ccc(Nc3ncc(Cl)c(N[C@@H]4CCCC[C@H]4NS(C)(=O)=O)n3)cc21` displayed a melting point of 127 to 130 °C. Under `CN1c2cscc2C(=O)N(CCN2CCCCC2)c2ccccc21` stands 84 to 88 °C; under `O=[N+]([O-])c1ccccc1C#Cc1c(F)c(F)nc(F)c1F`, 109 to 110 °C; under `Cc1noc(-c2ncn3c2[C@@H]2CCCN2C(=O)c2c(Br)cccc2-3)n1`, 237 to 238 °C.

With `COC(=O)Cn1c(C(=O)Nc2nc(-c3cc(OC)c(Cl)cc3OC)c(CC3CCCCC3)s2)cc2cc(C)cc(C)c21`, the melting point was in the range of 143 to 145 °C. Consider `CC(C)(C)C(=O)c1c[nH]c2ncc(N3CCc4ccccc4C3=O)nc12`, for which the melting point lay in the range of 113 to 115 °C.

For `CCOC(=O)c1cc(C#N)c(C)nc1Nc1ccccc1`, the melting point lay in the range of 133 to 135 °C.

In turn, `CC(C)(O)C(C(=O)O)c1ccc(Cl)cc1` (stereo unspecified) showed a melting point of 65 °C. `CCc1nn(CCN)c(CO)c1Oc1cc(Cl)cc(Cl)c1` displayed a melting point of 105 to 107 °C. `CC(CC(=O)Nc1cccc(/C=C/c2nc(C3CCC3)cs2)c1)C(=O)O` (stereo unspecified): the melting point was 165 to 167 °C. Under `O=C1Nc2ccccc2CN(c2ccccc2)N1` stands 283 to 286 °C. Under `C[C@@H](n1ccn(-c2ccc(-n3ccnn3)cc2)c1=O)[C@](O)(Cn1cncn1)c1ccc(F)cc1F` stands 178 to 181 °C; under `CCCOc1ccc(CC(C)=O)cc1S(N)(=O)=O`, 106 to 107 °C. As for `O=S(=O)(ON=C1CCCc2ccccc21)c1ccc(O)cc1`, the melting point was 141 to 142 °C. In turn, `COC(=O)c1c(Cl)cc(Cl)cc1NC(=O)CSc1ccc(O)cc1` yielded a melting point of 149 to 151 °C. The compound `CCc1cn(C2CC(O)C(CNCC(C)Oc3ccc(Cl)cc3Cl)O2)c(=O)[nH]c1=O` (mixture of isomers) yielded a melting point of 51 to 61 °C. `N#CC1c2cc(OCc3ccccc3)cc(OCc3ccccc3)c2C=CN1C(=O)c1ccccc1` (stereo unspecified): the melting point fell in the range of 123 to 125 °C.

The compound `CCC1CCC(NC(=O)NS(=O)(=O)c2ccc(CCNC(=O)N3CCC(C)CC3=O)cc2)CC1` (stereo unspecified) came in with a melting point of 178 to 180 °C. Consider `CC(O)[C@@H](Cc1ccccc1)NC(=O)OC(C)(C)C` (stereo partly specified), for which the melting point is 127 °C.

Compound `CC(C)(C)OC(=O)N1Cc2ccc(COc3cccc4c3CN(C3CCC(=O)NC3=O)C4=O)cc2C1` (stereo unspecified) displayed a melting point of 178 to 180 °C. As for `COC(=O)CCC#Cc1cc(Cl)ccc1NS(=O)(=O)c1ccc2nc(N)sc2c1`, the melting point was 175 °C.

Regarding `CCn1cc(C(c2ccc(Cl)cc2Cl)n2cncn2)c2cc(Br)ccc21` (stereo unspecified), the melting point fell in the range of 124 to 126 °C.
